SMILES	melting point [°C]
O=C(Nc1noc2ccccc12)N1CCN(c2nc(-c3ccccc3)co2)CC1	171 to 172
CCCCCCCCS(=O)c1ccc(CC(N)(CO)CO)cc1 (stereo unspecified)	80 to 82
COc1cc(Br)c(O)c(/C=C/C(=O)/C=C/c2cc(OC)cc(Br)c2O)c1	155 to 157
O=C(c1ccccc1)C1C=C(Cl)C=CC1(F)NCCO (stereo unspecified)	96 to 101
FC(F)(F)c1cc(I)cc(OCc2ccc3ccccc3c2)c1	65 to 66
CC(=O)c1c[nH]c2c3c(ccc12)OCC3	233 to 234
COc1nccnc1C1(O)CN2CCC1CC2 (stereo unspecified)	130 to 131
O=c1c2cc(F)ccc2[nH]c2c([N+](=O)[O-])ccc(Cl)c12	287 to 291
Cc1nccc(C#N)c1OC1SCC(O)C(O)C1O (stereo unspecified)	161
Cc1nc(-c2cccc(Cn3ccc4nc(C(C)C)n(Cc5ccc6ccc(-c7noc(C)n7)cc6c5)c4c3=O)c2)no1	108 to 109
CCCc1nc(C)n2cnnc2c1Cc1ccc(-c2ccccc2-c2nnn[nH]2)cc1	182 to 184
CCOC(=O)C=Cc1ccc([N+](=O)[O-])c(OC)c1	119 to 120
O=C1c2ccccc2-n2cnc(-c3cccc(Cl)c3)c2[C@@H]2CCCN12	242 to 243
Cc1cc(-c2nc3cccnn3c2-c2ccnc(NC(=O)NC3CCC(O)CC3)c2)ccc1F (stereo unspecified)	218 to 220
N#CN1C2CCC1CC(c1n[nH]c3ccccc13)C2 (stereo unspecified)	201 to 202
C=C(Cl)C(=O)Nc1ccc(Cl)cc1	105 to 106
COCCN1CCc2cc(Nc3ncc(Cl)c(Nc4ccccc4NS(C)(=O)=O)n3)c(OC)cc2CC1	107 to 112
COc1ccc(-c2cccc(C=CC(=O)Nc3ccc(CN4CCCCC4)cc3)c2)cc1	150 to 151
COc1ccccc1-c1ccc(C(=O)N2Cc3ccc(C(=O)NCCc4ccc(O)cc4)n3Cc3ccccc32)cc1C	138 to 147
CCCc1nc2c(N)nc3cc(OCCCCCCNC(=O)c4ccc(N=[N+]=[N-])cc4O)ccc3c2s1	127 to 128
O=S(=O)(O)NCc1ccncc1	227 to 228
COc1ccc(CN2C(=O)C3(COc4cc5onc(N)c5cc43)c3ccccc32)cc1 (stereo unspecified)	214 to 216
CCOc1cc(O)cc2c1C(=O)N(COC(=O)c1c(Cl)cccc1Cl)S2(=O)=O	216 to 217
COC(=O)NCc1ccc(Br)cc1F	66 to 67.5
NC(=O)NN=Cc1c(O)c(O)cc2ccccc12	210 to 215
CCOc1cc(Cn2cc(CCC(=O)O)c(-c3ccccc3)c2)cc(OCc2nc(-c3ccccc3)oc2C)c1	126 to 127

SMILES	melting point [°C]
C=CCC(C(=O)OC)C(=O)c1cccnc1 (stereo unspecified)	112 to 113
COc1cc(F)ccc1CCn1ccn2c(=O)cc(-c3ccncn3)nc12	196 to 198
Cc1cc(NS(=O)(=O)c2ccc(Br)cc2)cc(C)c1S(=O)(=O)C[N+](=O)[O-]	164 to 166
CCCCCCCCCCCCCCOc1ccccc1CO	33 to 34
CN(CCOCC(=O)OC(C)(C)C)C(=O)c1c(-c2ccc(C(C)(C)C)cc2)n(C)n(-c2ccc(C#N)cc2)c1=O	218 to 222
CCOC1=N[C@@H](CSCC)C(=O)N[C@@H]1Cc1ccccc1	118
CC(C)(C)C(OC(=O)Cl)=C(Oc1ccc(Cl)cc1)n1cncn1	159 to 161
COc1cc(C=C(Br)Br)ccc1OC(C)C	36 to 38
O=C(c1cccc(N2CC(=O)N(S(=O)(=O)c3ccc(Cl)cc3)C2=O)c1)N1CCOCC1	248 to 253
CNCc1cccc(CN(C)c2nc(=O)c3c(C)c(OC)c(OC)cc3[nH]2)c1	179 to 181
COP(=O)(Cc1cc(C(C)(C)C)c(O)c(C(C)(C)C)c1)c1ccccc1 (stereo unspecified)	112 to 114
CCCn1c(=O)c2nc(-c3ccc(/C=C/C(=O)O)cc3)[nH]c2n(CC2CCCCC2)c1=O	> 350
COc1ccc(Cl)cc1C(=O)NC(C)Cc1ccc(CCC(=O)O)cc1 (stereo unspecified)	125 to 126
Cc1cc(-c2nc(-c3cccs3)c[nH]2)ccc1O	167 to 172
CCCCc1cc2cccnc2[nH]1	46 to 47
OC(c1ccccc1)(c1ccccc1Cl)c1nccn1Cc1ccccc1 (stereo unspecified)	168
CC(C)(C)OC(=O)NCc1ccc(Nc2ncc(Br)cc2[N+](=O)[O-])cc1	178 to 180
O=C(O)CCc1cnoc1-c1ccc([N+](=O)[O-])cc1	204 to 205
O=C1CCC(c2ccc(F)cc2)c2ccccc2N1 (stereo unspecified)	209 to 212
CC(=O)C(CCC#N)(CCC#N)C(C)=O	185 to 186
O=C(CF)Nc1ccccc1	77 to 78.5
CCCCc1nc2ccc(O)cc2c(=O)n1Cc1ccc(-c2ccccc2-c2nnn[nH]2)cc1	212 to 214
COc1ccc(-c2csc(Nc3ccc4ccccc4c3)n2)cc1OC	221 to 224
FC(F)(F)Oc1ccc2nc(COc3ccccc3)[nH]c2c1	65 to 66
Cc1nc2cc(C(F)(F)F)ccc2n1N	190 to 192
Cc1cc(-c2ccc(S(C)(=O)=O)cc2)n(-c2ccc(F)cc2)c1	127 to 130

SMILES	melting point [°C]
CCOC(=O)C1=C(C)NC(COCCN2C(=O)c3ccccc3C2=O)=C(C(=O)OCC)C1c1ccccc1Cl (stereo unspecified)	142 to 144
Cc1ncn(-c2nc(C(=O)NCc3ccc(F)c(C)c3)c(O)c(=O)n2C)n1	204 to 205
Cn1cncc1C(c1ccc(Cl)cc1)c1ccc2c(c1)c(-c1ccccc1)cc(=O)n2C (stereo unspecified)	96.8
O=C(O)Cc1cccc2c1N=C(c1ccccc1F)CC2=O	243 to 245
O=C1CCCC2=C1C(c1cc(Br)cs1)C1=C(CCS1)N2 (stereo unspecified)	> 250
c1ccc(C2Nc3c4c(nc5ccccc35)CCCC4O2)cc1 (stereo unspecified)	225 to 235
Cc1c(C(=O)c2cccc(C(F)(F)F)c2F)c2ccc(Cl)c(Cl)c2n1CCCNS(C)(=O)=O	181
CC=C(C)c1c(-c2ccc(S(C)(=O)=O)cc2)cnn(CC(F)(F)F)c1=O	175 to 180
Cc1ccc2c(n1)N(CCCN(C(C)C)C(C)C)c1ccccc1N(C)C2=O	118 to 119
CCCC(=O)N[C@H]1CC[C@H](CCN2CCN(c3nccc4c3OCC4)CC2)CC1	183
CCCCC(CC)n1c(CC)nc2c1C(=O)N(C)CN2c1ccc(Cl)cc1Cl (stereo unspecified)	94 to 95
CCN(CC)C(=O)Cc1c(-c2ccc(OC)cc2)nc2c(C)cc(C)nn12	129 to 131
CNc1nnc(C(C)(C)C)s1	79 to 81
Oc1ccc2c(c1)OCC(c1ccc(F)cc1)C2c1ccc(OCCCN2CCCCC2)cc1 (stereo unspecified)	78 to 84
Cc1c(C)c2c(c(C)c1NC(=O)c1ccccc1)C(c1ccc(C(C)C)cc1)C(C)(C)O2 (stereo unspecified)	218 to 220
O=C(O)C=CCCCCCc1cccc2cncn12	110 to 111
CCCCc1c(Cl)nc(N)nc1-c1cc2ccccc2o1	195 to 196
C=CCOC(=O)CCCCCCCCCCCCCCCCC	35 to 36
O=[N+]([O-])c1cccc(Br)c1CBr	61.5 to 63
FC(F)(F)c1ccc(CC[C@H]2CNCCN2)cc1	135 to 141
CCOP(=O)(OCC)c1nc(N2CCCCC2)nc(N2CCCCC2)n1	103 to 105
Cc1nn(C2CCCC2C)c(N)c1C(N)=O (stereo unspecified)	124 to 126
CCOC(=O)C(=O)Nc1nc(C(C)C)cs1	54 to 57
Nc1nc(N)nc(Cc2cc3ccccc3s2)n1	216 to 218
COC(=O)CCNc1cccc(CNC(=O)C2Cc3ccccc3N2S(=O)(=O)c2ccc(-c3cccc(C(F)(F)F)c3)cc2)c1 (stereo unspecified)	57
CC(C)Cn1c(CNC(=O)OC(C)(C)C)c(-c2cccs2)c2cc(C(=O)O)ccc2c1=O	224 to 226

SMILES	melting point [°C]
Cc1ccccc1N(Cc1cccnc1)S(C)(=O)=O	97 to 98
COc1ccc(CN(C(=O)C2CCCc3ccc(OC)cc32)c2ccc(OC)cc2)cc1 (stereo unspecified)	89 to 90
CCN(CC)CCOC1=C(c2ccccc2)CN(Cc2ccc(Cl)cc2)C1=O	143 to 145
Cn1nc(Cl)c(Cl)cc1=O	97
Cc1ccc(C2Sc3cc(C)ccc3NC(=O)C2=O)cc1 (stereo unspecified)	142 to 144
O=C(O)COc1cccc(CCc2cc(-c3ccccc3)n(-c3ccccc3)n2)c1	125 to 127
CC(C)(C)OC(=O)Nc1cc(Cl)c(Cl)c(Cl)c1	120
CCOc1cc2c(C)c(CCOS(C)(=O)=O)c(=O)oc2cc1OC	153 to 154
CCCCCCN=C1SC(=CC(=O)O)C(=O)N1CCCCCC	66 to 69
COC(=O)c1csc(NC(=O)c2cc(OC)c(OC)cc2OC)n1	251 to 252
CC1=NCC2CC(=O)N(c3ccccc3)c3cc(Cl)ccc3N12 (stereo unspecified)	248 to 251
COc1ccc(S(=O)(=O)C2(CCCC#Cc3ccc(Cl)cc3)SC(=O)N(C)C2=O)cc1 (stereo unspecified)	113 to 115
COc1cc(/C=C/c2nc3ccccc3c(=O)o2)ccc1OC(C)=O	185 to 186
CCC1(c2ccccc2)Cc2cc(O)c(Cl)c(Cl)c2C1=O (stereo unspecified)	177 to 179
O=C(NCCO)c1cccc(-c2cccn3c(=O)n(Cc4cccc(C(F)(F)F)c4)nc23)c1	148 to 150
CCOC(=O)c1ncc2[nH]c3cccc(CN4CCOCC4)c3c2c1COC	195 to 196
CCCCOc1c(NCCCBr)c(=O)c1=O	56 to 57
COc1ccc(-c2ccc3c(c2)CC[C@H]2N(C)C(=O)CC[C@]32C)cc1OC	108 to 112
Fc1ccc(-c2n[nH]cc2-c2ccnc(NCc3ccccc3)n2)cc1	216 to 217
O=C(NCCCCCCO)OCc1ccccc1	67 to 68
COC(=O)C(C)Oc1ccc(Oc2cnc3ccccc3n2)cc1 (stereo unspecified)	110 to 115
COC(=O)CCCNC(=O)C(CO)NS(=O)(=O)c1ccc(Cl)cc1 (racemic)	119 to 121
CCc1nn(Cc2nccn2C)c2c(=O)[nH]c(-c3cc(S(C)(=O)=O)ccc3OCC(C)C)nc12	253 to 254

From a melting point compilation (Tetko et al.; mined from patent text by program, amines drawn as free bases though some values may be those of a salt)
